{
  "source": "patent US6992218B2",
  "about": "“Method for obtaining aqueous formulations of oxidation-sensitive active principles” (Pharmatop SCR, priority 2000, dated 2006)",
  "key": {"[1]": {"experiment": "Example IX: stability of 1% Dobutamine sulphate solution at 50° C.", "assay_type": "physicochemical", "protocol": "A Dobutamine sulphate solution is prepared by dissolving 1 g Dobutamine in 50 ml of water and 19 ml of a 0.10% sodium ascorbate solution is added, with continuous bubbling of nitrogen. Then 25 mg hydrated cysteine chlorhydrate and 70 mg hydrated sodium citrate are added, then 700 mg sodium chloride to ensure isotonicity. The solution is made up to 100 ml by the addition of distilled water for injectable preparations.\nIt is filled into 100 ml bottles under nitrogen until the residual oxygen content is below 0.8 ppm. The bottles are then stoppered under vacuum (approx. 10,000 Pa) and sterilized at 121° C. for 20 minutes.\nAfter removal from the autoclave, the bottles are kept in darkness in a thermostatic cupboard at 50° C.\nAn evaluation is made of absorption at 308 nm as an indication of oxidation into secondary products, the residual oxygen content and the residual cysteine content immediately after sterilization, then after being kept for 14 days at 50° C.\nColoration remains slight and reduces as the pH increases."}, "[2]": {"protocol": "A 10 mg/ml aqueous paracetamol solution adjusted to pH 5.5 by sodium hydroxide and buffered at this value by sodium acetate was made isotonic by a sufficient quantity of sodium chloride, then an antioxidant is added to it, in this case 0.20 mg/ml cysteine chlorhydrate. This solution was subjected to bubbling with nitrogen then placed under vacuum (low pressure approx. 550 mm of Hg) before stoppering the bottles. […] After sterilization, the bottles containing this solution were kept for 24 months at 25° C."}, "[3]": {"experiment": "Example III: stability of paracetamol solution with or without citrate ions", "assay_type": "physicochemical", "settings": "O2 approx. 0.4 ppm, sterilized", "protocol": "Thus a 10 mg/ml paracetamol solution adjusted to pH 5.5 by hydrochloric acid was subjected to bubbling with nitrogen until an oxygen content of approximately 0.4 ppm was obtained. The bottles were sterilized at 121° C. for 15 minutes and kept at ambient temperature. […] After bubbling with nitrogen, the residual oxygen content is of the order of 0.4 ppm. Afterwards the solution is packaged into bottles under vacuum and sterilized at 121° C. for 15 minutes. The bottles are kept for 67 days at ambient temperature."}, "[4]": {"experiment": "Paracetamol solution with trisodic citrate kept at 40° C. (general statement)", "assay_type": "physicochemical", "protocol": "In particular, in the case of paracetamol, after the addition of trisodic citrate at a concentration of 70 mg/100 ml of solution, the residual cysteine concentration is approximately double than that of preparations without citrate, no coloration appeared, even after 7 weeks at 40° C., and there was no variation in the concentration of paracetamol."}, "[5]": {"settings": "for coloration: sterilized 121° C. 15 min", "protocol": "A 10 mg/ml aqueous paracetamol solution is prepared. Adjustment to pH 5.5 is carried out by the addition of HCl, and buffering by the addition of sodium hydrogenophosphate.\nDeoxygenation is then carried out by bubbling with nitrogen, until a residual oxygen content of approximately 0.2 ppm is obtained. After the bottles are filled with the solution during prolonged bubbling with nitrogen, they are sterilized at 121° C. for 15 minutes.\nIn another test, the paracetamol solution, after being subjected to bubbling with nitrogen, has been packaged under nitrogen."}, "[6]": {"settings": "ambient temperature under light, and 70° C. in darkness; nitrogen bubbling, filling under nitrogen, antioxidant added; cited from earlier work"}, "[7]": {"experiment": "Example VI: buffered paracetamol + cysteine solutions without deoxygenation", "assay_type": "physicochemical", "settings": "10 mg/ml paracetamol + 0.25 mg/ml cysteine, no inert gas, darkness 25° C. 3 days", "protocol": "A quantity of sodium citrate (in the form of dihydrated disodic citrate) was added to 10 mg/ml aqueous paracetamol solutions, made isotonic by NaCl and stabilized by the addition of cysteine hydrochlorhide (0.25 mg/ml) suitable for adjusting the pH to 5.5. […] Comparative solutions were prepared without sodium citrate or replacing the citrate ions by equimolar quantities to those of the citrate, of either sodium acetate, or sodium hydrogenophosphate; in all cases adjusting the pH to a value of 5.5 by the addition of sodium hydroxide or hydrochloric acid.\nThe solutions were not subjected to bubbling with inert gas (nitrogen) and were kept in darkness at 25° C. for 3 days."}, "[8]": {"experiment": "Example V: residual cysteine in buffered aqueous cysteine solutions", "assay_type": "physicochemical", "settings": "0.25 mg/ml cysteine, approx. 7 ppm O2, darkness 25° C. 3 days", "protocol": "A 0.25 mg/ml aqueous cysteine solution was adjusted to pH 5.5, made isotonic by sodium chloride and buffered using as a buffering agent: dehydrated sodium citrate (0.70 mg/ml), sodium acetate, sodium hydrogenophosphate, in quantities equimolar to that of the citrate. […] They were kept in darkness at 25° C. for 3 days."}, "[9]": {"settings": "trisodic citrate 70 mg/100 ml, after 7 weeks at 40° C."}, "[10]": {"settings": "pH 5.5, sodium hydrogenophosphate"}},
  "note": "Where two headings read alike, the source gives them in different places.",
  "data": [
    {"smiles": "CC(CCc1ccc(O)cc1)NCCc1ccc(O)c(O)c1", "note": "(stereo not drawn) [Dobutamine]", "values": [
      {"measurement": "degradation of the Dobutamine in heat", "setting": "[1]; 1% solution with ascorbate, cysteine, citrate, vacuum, sterilized 121° C. 20 min, kept at 50° C.", "result": "no degradation"},
      {"measurement": "secondary peaks by liquid chromatography, absorption at 308 nm", "setting": "[1]; degree decreases as the pH increases", "result": "appearance of secondary peaks"},
      {"measurement": "coloration", "setting": "[1]; reduces as the pH increases", "result": "slight"}
    ]},
    {"smiles": "CC(=O)Nc1ccc(O)cc1", "note": "[paracetamol]", "values": [
      {"measurement": "paracetamol content", "setting": "[2]; 0.20 mg/ml cysteine chlorhydrate, O2 approx. 1.5 ppm, sterilized, 24 months at 25° C.", "result": "100 % of the original value"},
      {"measurement": "coloration", "setting": "[2]; 10 mg/ml, pH 5.5, acetate buffer, 0.20 mg/ml cysteine chlorhydrate, vacuum, O2 approx. 1.5 ppm, sterilized, 24 months at 25° C.", "result": "colourless"},
      {"measurement": "degradation products of the paracetamol measured by HPLC", "setting": "[2]; 24 months, 10 mg/ml, pH 5.5", "result": "less than 0.02 % of the paracetamol content"},
      {"measurement": "coloration", "setting": "[3]; 10 mg/ml with citric acid/sodium citrate, under vacuum, 67 days at ambient temperature", "result": "perfectly colourless"},
      {"measurement": "coloration", "setting": "[3]; 10 mg/ml, pH 5.5 by HCl, no citrate, 9 days at ambient temperature", "result": "yellow-pink"},
      {"measurement": "residual cysteine concentration versus preparations without citrate", "setting": "[4]; trisodic citrate 70 mg/100 ml of solution", "result": "approximately double"},
      {"measurement": "coloration", "setting": "[4]; [9]", "result": "no coloration"},
      {"measurement": "variation in the concentration of paracetamol", "setting": "[4]; [9]", "result": "no variation"},
      {"measurement": "coloration", "setting": "[5]; 10 mg/ml, pH 5.5, no antioxidant, O2 approx. 0.2 ppm, 6 months at 25° C.", "result": "colourless"},
      {"measurement": "paracetamol content", "setting": "[5]; 10 mg/ml, pH 5.5, no antioxidant, O2 approx. 0.2 ppm, sterilized, 6 months at 25° C.", "result": "no change"},
      {"measurement": "content of degradation products of paracetamol determined by HPLC", "setting": "[5]; 6 months, 10 mg/ml, pH 5.5", "result": "lower than 0.015 % of the paracetamol"},
      {"measurement": "coloration", "setting": "[5]; packaged under nitrogen, vacuum < 10,000 Pa, O2 0.16 ppm, 8 days at 30° C.", "result": "colourless"},
      {"measurement": "time for which aqueous solutions are stable", "setting": "[6]", "result": 48, "unit": "h"}
    ]},
    {"smiles": "N[C@@H](CS)C(=O)O", "note": "[cysteine]", "values": [
      {"measurement": "residual cysteine", "setting": "[7]; pH 5.5, citrate approx. 0.7 mg/ml", "result": 22, "unit": "%"},
      {"measurement": "residual cysteine", "setting": "[7]; pH 5.5, non-buffered", "result": 42, "unit": "%"},
      {"measurement": "residual cysteine", "setting": "[7]; pH 5.5, sodium acetate", "result": 17, "unit": "%"},
      {"measurement": "residual cysteine", "setting": "[7]; [10]", "result": 21, "unit": "%"},
      {"measurement": "residual cysteine content", "setting": "[8]; pH 5.5, citrate 0.70 mg/ml", "result": "lowest"},
      {"measurement": "residual cysteine content", "setting": "[8]; pH 5.5, non-buffered", "result": 15, "unit": "%"},
      {"measurement": "residual cysteine content", "setting": "[8]; pH 5.5, sodium acetate", "result": 18, "unit": "%"},
      {"measurement": "residual cysteine content", "setting": "[8]; [10]", "result": 21, "unit": "%"}
    ]}
  ]
}
